Laboratory results from patent publication US7645802B2 (Biovail Laboratories International SRL., priority 2005, dated 2010).
Entries after “also recorded” stand apart in the source; their conditions may differ. Counter-ions that a name gives are not always drawn. Like-named read-outs stand apart in the source and are kept apart here. Marks after values point to notes of the source that are not given here.

Columns and labels:
[1] = forced degradation stability study of bupropion salts in vials, 40 degrees C./75% RH, HPLC assay and impurities; settings: for order of stability (assay, % potency): salt plus excipients, 20 days, 40 degrees C./75% RH
[2] = forced degradation of bupropion HBr and HCl in the presence of excipients at 55° C., 55° C./100% RH, 100° C., 105° C. (incl. TGA at 100° C.); assay type: physicochemical; settings: TGA experiment at 100° C.
Protocol: Further forced degradation studies were carried out at 55° C., at 55° C. and 100% relative humidity, at 100° C., and at 105° C. on both the HCl and HBr Bupropion salts in the presence of excipients. […] FIG. 53 is a graph showing the loss of each salt over time in a TGA experiment at 100° C.

CD-1 mice = test: cortical EEG and behaviour in mice at convulsive and non-convulsive doses; settings: 150 mg/kg i.p.; for seizure-like behavioural activity over time, second study pair: time after injection
Experimental: Test system: 30 healthy female mice, of strain CD-1, having a bodyweight of 25-29 g, were acclimatized for a minimum period of 4 days and used for this study. Each animal, after allocation to groups, was identified by markings on the dorsal surface of the tail. Environmental conditions included a temperature of 22±3° C., and artificial lighting of 12 hours light/dark cycle. Routine activities such as cleaning, feeding and watering were performed according to the RCSl's current SOPS.
The diluent used was 0.9% sodium chloride solution. Storage temperature was at about 25° C.
Test Item Administration: The test item was administered intraperitoneally using a disposable syringe with a 1 ml syringe and 26 g needle. The route of administration was intraperitoneal.
Protocol: Habituated mice were anesthetized with isofolurane, placed in a stereotaxic frame and maintained normothermic (36-37° C.) by means of a feedback-controlled mouse-designed homeothermic blanket (Harvard Apparatus). Under isoflurane anaesthesia, a midline skill incision was made over the skull and the skull exposed. Three partial craniectomies were performed: one overlying each temporal lobe and a third across the region overlying frontal cortex. Mouse-sized cranial EEG (E363/20, electrode with mounting screw and socket, Plastics One Inc) were affixed at each point. The electrode assembly was affixed to the skull with dental cement and then anaesthesia discontinued and the animal placed in the recording chamber for 30-60 minutes after recovery. Electrodes were then connected to a multichannel 363 Connector Cable system with SL6C 6 channel swivel commutator and baseline EEG recordings commenced using a Grass model Comet Portable 40-channel Digital EEG & Review System with Twin digital EEG in tandem with continuous digital video. […] Mice were run in parallel so that a hydrochloride mouse was injected within minutes of a hydrobromide mouse and recordings made simultaneously. Video-EEG was recorded for a period of one (1) hour. Afterwards, mice were returned to cages and then euthanized at 24 h and brains harvested.
Analysis: The duration of type IV polyspike high frequency (>1 Hz) high amplitude (>2× baseline) was determined for each mouse over the 1 h recording period.

rat = settings: for NUMBER OF ANIMALS WITH SEIZURE ACTIVITY / DURATION OF INITIAL SEIZURE CORTEX mean ± s.e.m. / DURATION OF INITIAL SEIZURE HIPPOCAMPUS mean ± s.e.m.: 100 mg/kg i.p., long seizure activity; for NUMBER OF ANIMALS WITH SEIZURE ACTIVITY: 10 rats per group, HBr dose in HCl molar equivalent
TGA of bupropion salts = assay type: physicochemical; settings: at 400° C.
Experimental: 2-5 mg of each salt was placed in an aluminium pan and covered with its lid. DSC was run for each sample at the rate of 10 degrees C./min (for HBr salt, different rates were used to investigate for polymorphs) from 30 degrees C. to 400 degrees C. TGA was also used for each of the HBr, HCl, maleate and tosylate salts.
(§1) The salts were analyzed by DSC (at 10° C./min from 30° C. up to 400° C.) and the pH (aq. 0.5%), and the moisture content by KF were also measured. The TGA was performed on the HCl, maleate, tosylate and HBr salts.

[3] = comparative forced degradation of bupropion HCl and HBr API salts, closed bottle, 40° C./75% RH; assay type: physicochemical
Experimental: These studies were performed in closed bottles in a stability chamber kept at about 40 degrees C. and about 75% relative humidity. At specified times, the material in the bottles was analyzed for the presence of degradation products and % potency (% assay).
The samples were exposed to the above conditions in a closed bottle for few days, and then subjected to HPLC analysis.
The amount of the main degradation products present after treatment were compared with those amounts that were present initially.
The samples were analyzed after 14 and 24 days (study-1) and 10 days (study II), in a quantitative manner by direct treatment of the whole content of the bottle as per the HPLC standard test method (P05.901.10).

[4] = Closed vial / closed glass bottle stability (40° C./75% RH) of bupropion salt APIs; assay type: physicochemical
[5] = Solubility and other physical properties, Bupropion HBr vs Bupropion HCl
[6] = moisture content by KF and pH (aq. 0.5%) of bupropion salts; assay type: physicochemical; settings: salt as received
Experimental: The eight salts were first evaluated by HPLC, KF, pH and DSC for purity, water content, aqueous pH and possible polymorphs.
as §1

[7] = two batches of each API, 10 days
[8] = 10-Days, closed glass bottle 40 C./75% RH, HBr Lot# STN07491, HCl Lot# STN06973
[9] = 10 Days, closed glass bottle 40 C./75% RH, HBr Lot# STN07492, HCl Lot# STN06978
[10] = 14-Days, closed glass bottle 40° C./75% RH, HBr Lot# STN07492, HCl L# STN06973
[11] = 24 Days, closed glass bottle 40° C./75% RH, HBr Lot# STN07492, HCl L# STN06973
[12] = 24 Days, closed glass bottle 40° C./75% RH, HBr Lot# STN07492, HCl L# STN06973, hydrochloride
[13] = Initial, closed glass bottle 40 C./75% RH, HBr Lot# STN07491, HCl Lot# STN06973
[14] = Initial, closed glass bottle 40 C./75% RH, HBr Lot# STN07492, HCl Lot# STN06978
[15] = Initial, closed glass bottle 40° C./75% RH, HBr Lot# STN07492, HCl L# STN06973
[16] = HCl from Erregierre, HBr from Chemi, hydrochloride
[17] = spiked with IPA/EtOH, closed vials, 32 days

Structure (SMILES): CC(NC(C)(C)C)C(=O)c1cccc(Cl)c1.Cl (racemic) [bupropion hydrochloride, (±)-1-(3-chlorophenyl)-2-[(1,1-dimethylethyl)amino]-1-propanone hydrochloride]
- In IPA/EtOH, 3-CBZ: order of impurity content [1]: maleate > HBr > HCl > Fumarate
- In IPA/EtOH, 852U77: order of impurity content [1]: fumarate > HBr ≈HCl ≈maleate ≈tosylate
- In IPA/EtOH, Total imp.: order of impurity content [1]: fumarate > maleate > HBr > HCl > tosylate
- In water, 3-CBZ: order of impurity content [1]: HCl > HBr≈maleate≈fumarate
- In water, 852U77: order of impurity content [1]: fumarate > HBr > maleate > HCl
- In water, Total imp.: order of impurity content [1]: fumarate > HBr > HCl > tosylate > maleate
- order of stability (assay, % potency) ([1]; closed vials): HBr>HCl≈tosylate>fumarate>maleate
- disproportionation of the salt at elevated temperatures (TGA, loss of API) [2]: disproportionation of the HCl salt occurs with concomitant loss of gaseous HCl
- seizure EEG (CD-1 mice; n=4 per salt, cortical electrodes, 1 h, listed as HCl, hydrochloride): no seizure EEG; also recorded: two very brief EEG bursts; also recorded: brief burst of seizure
- seizure-like behavioural activity over time, second study pair (CD-1 mice): about 30 mins
- NUMBER OF ANIMALS WITH SEIZURE ACTIVITY (rat): 10
- DURATION OF INITIAL SEIZURE CORTEX mean ± s.e.m. (rat): 33 ± 3
- DURATION OF INITIAL SEIZURE HIPPOCAMPUS mean ± s.e.m. (rat): 25 ± 4

Structure (SMILES): CC(NC(C)(C)C)C(=O)c1cccc(Cl)c1 (stereo not drawn) [Bupropion HCl, bupropion hydrochloride]
- residue (TGA) (TGA of bupropion salts): minimal residues
- assay value, HCl versus HBr [3, 7]: lower than that for the HBr salt
- % Assay [4, 8]: 96.3%
- % Impurities 3-CBZ [4, 8]: 0.110%
- % Impurities 20U78/dilu [4, 8]: 0.047%
- % Impurities 827U76 [4, 8]: 0.045%
- % Impurities 852U77 [4, 8]: 0.047%
- % Impurities Total unknown [4, 8]: 0.187%
- % Impurities Total (%) ([4]; 10-Days, closed glass bottle 40 C./75% RH, HBr Lot# STN07491, HCl Lot# STN06973, hydrochloride): 0.44%
- % Assay [4, 9]: 96.5%
- % Impurities 3-CBZ [4, 9]: 0.278%
- % Impurities 20U78/dilu [4, 9]: 0.057%
- % Impurities 827U76 [4, 9]: 0.141%
- % Impurities 852U77 [4, 9]: 0.124%
- % Impurities Total unknown [4, 9]: 0.137%
- % Impurities Total (%) ([4]; 10 Days, closed glass bottle 40 C./75% RH, HBr Lot# STN07492, HCl Lot# STN06978, hydrochloride): 0.74%
- % Assay [4, 10]: 98.5%
- % Impurities 3-CBZ [4, 10]: 0.019%
- % Impurities 20U78/dilu [4, 10]: 0.038%
- % Impurities 852U77 [4, 10]: 0.010%
- % Impurities Total unknown [4, 10]: 0.038%
- % Impurities Total (%) ([4]; 14-Days, closed glass bottle 40° C./75% RH, HBr Lot# STN07492, HCl L# STN06973, hydrochloride): 0.11%
- % Assay [4, 11]: 98.5%
- % Impurities 3-CBZ [4, 11]: 0.082%
- % Impurities 827U76 [4, 11]: 0.102%
- % Impurities 852U77 [4, 11]: 0.023%
- % Impurities Total unknown [4, 11]: 0.049%
- % Impurities 20U78/dilu [4, 12]: 0.040%
- % Impurities Total (%) [4, 12]: 0.30%
- % Assay [4, 13]: 99.4%
- % Impurities 3-CBZ [4, 13]: 0.003%
- % Impurities 20U78/dilu [4, 13]: 0.040%
- % Impurities Total unknown [4, 13]: 0.053%
- % Impurities Total (%) ([4]; Initial, closed glass bottle 40 C./75% RH, HBr Lot# STN07491, HCl Lot# STN06973, hydrochloride): 0.10%
- % Assay [4, 14]: 99.1%
- % Impurities 3-CBZ [4, 14]: 0.002%
- % Impurities 20U78/dilu [4, 14]: 0.04%
- % Impurities Total unknown [4, 14]: 0.165%
- % Impurities Total (%) ([4]; Initial, closed glass bottle 40 C./75% RH, HBr Lot# STN07492, HCl Lot# STN06978, hydrochloride): 0.21%
- % Assay [4, 15]: 100.4%
- % Impurities 3-CBZ [4, 15]: 0.002%
- % Impurities 20U78/dilu [4, 15]: 0.043%
- % Impurities 852U77 [4, 15]: 0.003%
- % Impurities Total unknown [4, 15]: 0.044%
- % Impurities Total (%) ([4]; Initial, closed glass bottle 40° C./75% RH, HBr Lot# STN07492, HCl L# STN06973, hydrochloride): 0.09%
- solubility ([5]; EtOH): 80 mg/mL
- pH (aq. 0.5%) ([5]; HCl from Erregierre, HBr from Chemi): 5.90
- PS (Malvern) 10% [5, 16]: 10% 32 μm
- PS (Malvern) 50% [5, 16]: 50% 102 μm
- PS (Malvern) 90% [5, 16]: 90% 276 μm
- moisture content KF [5, 16]: 0.01%
- solubility ([5]; IPA): 10 mg/mL
- solubility ([5]; Water): 270 mg/mL

Structure (SMILES): Br.CC(NC(C)(C)C)C(=O)c1cccc(Cl)c1 (stereo not drawn) [bupropion hydrobromide]
- In water, 852U77: order of impurity content [1]: fumarate > HBr > maleate > HCl
- In water, Total imp.: order of impurity content [1]: fumarate > HBr > HCl > tosylate > maleate
- order of stability (assay, % potency) ([1]; closed vials): HBr>HCl≈tosylate>fumarate>maleate
- In IPA/EtOH, 3-CBZ: order of impurity content [1, 17]: maleate > HBr > HCl > Fumarate
- In IPA/EtOH, 852U77: order of impurity content [1, 17]: fumarate > HBr ≈HCl ≈maleate ≈tosylate
- In IPA/EtOH, Total imp.: order of impurity content [1, 17]: fumarate > maleate > HBr > HCl > tosylate
- In water, 3-CBZ: order of impurity content ([1]; spiked with water, closed vials, 32 days): HCl > HBr≈maleate≈fumarate
- moisture content KF [6]: 0.00%
- pH of the aqueous solution of 0.5% [6]: 5.92
- disproportionation of the salt at elevated temperatures (TGA, loss of API) [2]: did not occur
- duration of convulsive behavior, hydrobromide versus hydrochloride (CD-1 mice; study pairs 1, 2 and 3): lasted longer than the hydrochloride-treated mouse
- seizure-like behavioural activity over time, second study pair (CD-1 mice): still observing rearing and falling, forepaw running and turning in the hydrobromide-treated mouse at 60 minutes
- resulting degradation products, HBr versus HCl ([3]; 14 and 24 days (study-1)): either similar or better for the HBr salt
- level of bupropion degradation impurities, HBr versus HCl [3, 7]: lower than bupropion HCl
- NUMBER OF ANIMALS WITH SEIZURE ACTIVITY (rat): 4*
- DURATION OF INITIAL SEIZURE CORTEX mean ± s.e.m. (rat): 31 ± 6
- DURATION OF INITIAL SEIZURE HIPPOCAMPUS mean ± s.e.m. (rat): 23 ± 2
- dead (rat; in vivo, ip, 100 mg/kg): #dead (1/10).
